{"source": "paper PMC8746953", "about": "“Caseinolytic Proteins (Clp) in the Genus Klebsiella: Special Focus on ClpK” (Molecules, 2021)", "molecular_target": "T1, ClpK (Klebsiella pneumoniae, UniProt E0W6V3)", "T1 construct": "full-length codon-optimised gene in pColdI (BamH1/SalH1), His-tagged, expressed in E. coli BL21; oligomer not measured", "T1 sequence (E0W6V3 entry or part of it)": "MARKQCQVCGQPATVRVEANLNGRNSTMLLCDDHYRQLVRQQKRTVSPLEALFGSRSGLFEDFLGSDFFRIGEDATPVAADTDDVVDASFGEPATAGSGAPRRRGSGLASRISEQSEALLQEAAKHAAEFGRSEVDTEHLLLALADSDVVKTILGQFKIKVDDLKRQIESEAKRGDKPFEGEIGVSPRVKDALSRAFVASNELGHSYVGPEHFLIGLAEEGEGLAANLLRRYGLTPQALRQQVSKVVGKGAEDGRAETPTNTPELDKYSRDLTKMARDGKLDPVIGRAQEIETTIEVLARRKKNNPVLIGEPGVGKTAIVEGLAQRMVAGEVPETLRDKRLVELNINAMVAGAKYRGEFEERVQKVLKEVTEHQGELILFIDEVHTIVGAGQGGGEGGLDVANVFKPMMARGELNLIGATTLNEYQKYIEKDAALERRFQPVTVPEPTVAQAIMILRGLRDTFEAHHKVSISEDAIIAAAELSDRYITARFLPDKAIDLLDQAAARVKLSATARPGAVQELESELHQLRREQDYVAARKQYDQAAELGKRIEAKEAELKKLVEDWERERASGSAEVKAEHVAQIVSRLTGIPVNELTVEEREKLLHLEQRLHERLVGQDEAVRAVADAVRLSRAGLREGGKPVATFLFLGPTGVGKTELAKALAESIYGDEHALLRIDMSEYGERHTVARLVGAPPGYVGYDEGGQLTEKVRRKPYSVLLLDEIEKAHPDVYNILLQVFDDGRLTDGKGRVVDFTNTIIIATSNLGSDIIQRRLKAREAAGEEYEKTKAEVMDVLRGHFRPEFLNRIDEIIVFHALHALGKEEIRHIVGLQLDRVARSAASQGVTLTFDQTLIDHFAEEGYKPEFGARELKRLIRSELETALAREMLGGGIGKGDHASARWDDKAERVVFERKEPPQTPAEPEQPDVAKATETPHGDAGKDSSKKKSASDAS", "test": "fluorescence emission of mant-nucleotide (excitation […] nm)", "type": "binding", "conditions": "2 uM ClpK, 10 uM mant-ATP; 10 mM sodium phosphate pH 7.4, 20 °C; labelled compound"}
{"smiles": "CNc1ccccc1C(=O)O[C@H]1[C@@H](O)[C@H](n2cnc3c(N)ncnc32)O[C@@H]1COP(=O)(O)OP(=O)(O)OP(=O)(O)O", "note": "[mant-ATP]", "values": [{"measurement": "fluorescence emission of mant-nucleotide (excitation 355 nm)", "result": "The spectrum indicates binding of mant-ATP as indicated by an increase in the fluorescence quantum yield"}]}
